Experimental data from patent publication US8420216B2, “Thermosetting resin composition” (Showa Denko K.K., priority 2007, dated 2013).
“And” between values parts separate entries of the source, which are not always exact repeats. Equal values may be shown once. Read-outs that look alike come from different tables or passages of the source.

Test: pKa of curing accelerator (dissociation constant of aqueous solution at 25° C.)
Assay type: physicochemical
Method: The “pKa value” referred to in the invention is a numerical value represented by the following formula when the dissociation constant of an aqueous solution at 25° C. is denoted by “Ka”. The dissociation constant Ka of the aqueous solution is determined by, for example, measuring a hydrogen ion concentration of the aqueous solution by a pH meter and calculating concentrations of a dissociated component and an undissociated component after dissolution by the use of the resulting hydrogen ion concentration and weighed values of the solvate and water before dissolution. pKa=−log10 Ka

[1] = aqueous solution at 25° C., values in text
[2] = aqueous solution, of the curing accelerator, Table 1, read-out: pKa

pKa [1] | pKa (aqueous solution, aqueous solution at 25° C., values in text, read-out: pKa) | pKa (of the curing accelerator, Table 1) | SMILES | pKa [2] | pKa (aqueous solution at 25° C., values in text, read-out: pKa)
7.9 | 7.88 |  | Cc1ncc[nH]1 [2-methylimidazole] | 7.9 | 
12.5 |  | 12.7 and 12.5 | C1CCC2=NCCCN2CC1 [DBU, 1,8-diazabicyclo[5.4.0]undecene-7] |  | 
 |  |  | Nc1nc(N)nc(N)n1 [melamine] | 5 | 5
